The term bioavailability denotes the share of a dose that reaches the circulation, judged against a reference dose that is usually intravenous. As a reminder, the MRT is the average time that molecules of a dose stay in the body. Usually Cmax stands for the peak of the concentration-time curve.

These results are taken from ChEMBL document CHEMBL4842348 (J Med Chem, 2021).

A value given as a limit tells only on which side of the number the result lay.

Data set [1] in a line: Dose normalized AUC in CD1 mouse at 1 mg/kg, iv and 2 mg/kg, po. The class given is ADME, organism-based. The conditions noted are these: in vivo.
Data set [2] can be described thus: Oral bioavailability in CD1 mouse at 2 mg/kg. The note with it: in vivo. The class given is ADME, organism-based.
Data set [3] can be described thus: MRT in WH rat at 1 mg/kg, iv. The note with it: in vivo. The class given is ADME, organism-based.
The nature of data set [4]: Cmax in Beagle dog at 2 mg/kg, po. In kind it is ADME, organism-based, Canis lupus familiaris. Set-up: route oral, dose 2 mg/kg. The conditions noted are these: in vivo.
Data set [5] can be described thus: Cmax in rhesus monkey at 2 mg/kg, po. The conditions noted are these: in vivo. Set-up: route oral, dose 2 mg/kg. In kind it is ADME, organism-based, Macaca mulatta.
Data set [6] can be described thus: Half life in lean wild type mouse liver at 10 mg/kg, po qd treated for 40 days. In kind it is ADME, organism-based. The note with it: time 40 day.
A short description of data set [7]: Half life in DIO wild type mouse plasma at 10 mg/kg, po qd treated for 40 days. In kind it is ADME, organism-based. The note with it: time 40 day.
Data set [8] is described as follows: Half life in DIO wild type mouse liver at 10 mg/kg, po qd treated for 40 days. The class given is ADME, organism-based. The conditions noted are these: time 40 day.
The nature of data set [9]: Terminal half life in DIO NFR-transgenic mouse liver at 10 mg/kg, po once daily for 14 days. In kind it is ADME, organism-based. The conditions noted are these: time 14 day, read-out: beta t1/2 (converted).
Data set [10] is described as follows: Terminal half life in DIO NFR-transgenic mouse adipose tissue at 10 mg/kg, po once daily for 14 days. The conditions noted are these: time 14 day, read-out: beta t1/2 (converted). In kind it is ADME, organism-based.
Data set [11] is described as follows: Normalized AUC (0 to 72 hrs) in fasted dog at 1 mg/kg, po in Imwitor/Tween. The class given is ADME, organism-based, Canis lupus familiaris. The conditions noted are these: in vivo.
The nature of data set [12]: Cmax in fasted dog at 1 mg/kg, po in Imwitor/Tween. In kind it is ADME, organism-based, Canis lupus familiaris. Set-up: route oral, dose 1 mg/kg. The note with it: in vivo.
Data set [13] can be described thus: Oral bioavailability in fasted dog at 1 mg/kg in 0.5% methocel. The class given is ADME, organism-based, Canis lupus familiaris. The note with it: in vivo.
Data set [14] in a line: Oral bioavailability in high fat diet fed dog at 1 mg/kg in Imwitor/Tween. In kind it is ADME, organism-based, Canis lupus familiaris. The conditions noted are these: in vivo.
The nature of data set [15]: Drug recovery in bile duct cannulated single po dosed WH rat assessed as recovered parent compound in bile relative to total recovery. In kind it is ADME, organism-based. The conditions noted are these: in vivo.
The nature of data set [16]: Drug recovery in bile duct cannulated single po dosed WH rat assessed as recovered total feces radioactivity. In kind it is ADME, organism-based. The note with it: in vivo.
The nature of data set [17]: Drug recovery in bile duct cannulated single iv dosed WH rat assessed as recovered total bile radioactivity. The conditions noted are these: in vivo. The class given is ADME, organism-based.
Data set [18] is described as follows: Drug recovery in bile duct cannulated single iv dosed WH rat assessed as recovered parent compound in plasma measure at 24 hrs relative to total recovery. The class given is ADME, organism-based. The conditions noted are these: in vivo.
Data set [19] in a line: Drug recovery in bile duct cannulated single po dosed rhesus monkey assessed as recovered total bile radioactivity. The class given is ADME, organism-based, Macaca mulatta. The conditions noted are these: in vivo.
Data set [20] is described as follows: Drug recovery in bile duct cannulated single po dosed rhesus monkey assessed as recovered parent compound in bile relative to total recovery. In kind it is ADME, organism-based, Macaca mulatta. The conditions noted are these: in vivo.
A short description of data set [21]: Drug recovery in bile duct cannulated single po dosed rhesus monkey assessed as recovered total feces radioactivity. In kind it is ADME, organism-based, Macaca mulatta. The conditions noted are these: in vivo.
Data set [22] is described as follows: Drug recovery in bile duct cannulated single po dosed rhesus monkey assessed as recovered parent compound in urine relative to total recovery. The note with it: in vivo. In kind it is ADME, organism-based, Macaca mulatta.
Data set [23] is described as follows: Drug recovery in bile duct cannulated single po dosed rhesus monkey assessed as recovered parent compound in plasma measured at 24 hrs relative to total recovery. The class given is ADME, organism-based, Macaca mulatta. The conditions noted are these: in vivo.

`COc1ncc(-c2ccc(C(=O)O)cc2C)cc1-c1ccc(C(F)(F)F)cc1[C@@H]1CC[C@H]2[C@@H](c3cc(C(F)(F)F)cc(C(F)(F)F)c3)OC(=O)N12`: the results for the AUC/dose in data set [1] and in [11] were 9.2 µM·h and 24 µM·kg·h/mg, respectively. The bioavailability in data set [2] was 43%; in data set [13] it was 14%; in [14], 48%. The compound also yielded an MRT in data set [3] of 13 h. The Cmax turned out to be 690 nM in data set [4], 220 nM in data set [5] and 1500 nM in data set [12]. Further, the half-life is 1.5 h in [6], 67.2 h in data set [7] and 76.8 h in data set [8]. Also, the half-life at […] is 5.5 h in data set [9] and 2.8 h in data set [10]. For the same compound, the Drug recovery in data set [15] is given as below 2%; in data set [16], 46%; in data set [17] it was 67%; in data set [18], above 99%; in data set [19], above 99%; in [20], below 1%. In addition, the Drug recovery in data set [21] is 60%; in data set [22], above 99%; in data set [23] it was above 99%.
